# Measured values taken from ChEMBL document CHEMBL2413072, “Synthesis and in vitro anticancer studies of novel C-2 arylidene congeners of lantadenes” (2013).
# How the values were obtained:
# Assay type in all cases: functional
# RPMI-8226 = assay: Growth inhibition of human RPMI8226 cells by sulforhodamine B assay
# BT-549 = assay: Growth inhibition of human BT549 cells assessed as growth inhibition at 10 uM by sulforhodamine B assay; details: read-out: GI
# MCF7 [1] = assay: Growth inhibition of human MCF7 cells assessed as growth inhibition at 10 uM by sulforhodamine B assay; details: read-out: GI
# PC-3 = assay: Growth inhibition of human PC3 cells assessed as growth inhibition at 10 uM by sulforhodamine B assay; details: read-out: GI
# OVCAR-8 [2] = assay: Growth inhibition of human OVCAR8 cells assessed as growth inhibition at 10 uM by sulforhodamine B assay; details: read-out: GI
# IGROV-1 = assay: Growth inhibition of human IGROV1 cells assessed as growth inhibition at 10 uM by sulforhodamine B assay; details: read-out: GI
# UACC-62 = assay: Growth inhibition of human UACC62 cells assessed as growth inhibition at 10 uM by sulforhodamine B assay; details: read-out: GI
# UACC-257 = assay: Growth inhibition of human UACC257 cells assessed as growth inhibition at 10 uM by sulforhodamine B assay; details: read-out: GI
# HT-29 [3] = assay: Growth inhibition of human HT-29 cells assessed as growth inhibition at 10 uM by sulforhodamine B assay; details: read-out: GI
# [4] = Growth inhibition of human HCC2998 cells assessed as growth inhibition at 10 uM by sulforhodamine B assay; details: HCC 2998, read-out: GI
# NCI-H23 [5] = assay: Growth inhibition of human NCI-H23 cells assessed as growth inhibition at 10 uM by sulforhodamine B assay; details: read-out: GI
# NCI-H226 = assay: Growth inhibition of human NCI-H226 cells assessed as growth inhibition at 10 uM by sulforhodamine B assay; details: read-out: GI
# HOP-92 [6] = assay: Growth inhibition of human HOP92 cells assessed as growth inhibition at 10 uM by sulforhodamine B assay; details: read-out: GI
# [7] = Growth inhibition of human EKVX cells assessed as growth inhibition at 10 uM by sulforhodamine B assay; details: read-out: GI
# K562 [8] = assay: Growth inhibition of human K562 cells assessed as growth inhibition at 10 uM by sulforhodamine B assay; details: read-out: GI
# 786-0 [9] = assay: Growth inhibition of human 786-0 cells assessed as cell growth at 10 uM by sulforhodamine B assay; details: read-out: Activity
# OVCAR-8 [10] = assay: Growth inhibition of human OVCAR8 cells assessed as cell growth at 10 uM by sulforhodamine B assay; details: read-out: Activity
# OVCAR-4 = assay: Growth inhibition of human OVCAR4 cells assessed as cell growth at 10 uM by sulforhodamine B assay; details: read-out: Activity
# OVCAR-3 = assay: Growth inhibition of human OVCAR3 cells assessed as cell growth at 10 uM by sulforhodamine B assay; details: read-out: Activity
# SNB-19 = assay: Growth inhibition of human SNB19 cells assessed as cell growth at 10 uM by sulforhodamine B assay; details: read-out: Activity
# KM12 = assay: Growth inhibition of human KM12 cells assessed as cell growth at 10 uM by sulforhodamine B assay; details: read-out: Activity
# HT-29 [11] = assay: Growth inhibition of human HT-29 cells assessed as cell growth at 10 uM by sulforhodamine B assay; details: read-out: Activity
# SR = assay: Growth inhibition of human SR cells assessed as cell growth at 10 uM by sulforhodamine B assay; details: read-out: Activity
# NCI-H322M = assay: Growth inhibition of human NCI-H322M cells assessed as cell growth at 10^-8 M by sulforhodamine B assay; details: read-out: Activity
# K562 [12] = assay: Growth inhibition of human K562 cells assessed as cell growth at 10^-8 M by sulforhodamine B assay; details: read-out: Activity
# DU-145 = assay: Growth inhibition of human DU145 cells by sulforhodamine B assay
# A498 = assay: Growth inhibition of human A498 cells by sulforhodamine B assay
# MDA-MB-468 [13] = assay: Growth inhibition of human MDA-MB-468 cells assessed as cell growth at 10^-4 M by sulforhodamine B assay; details: read-out: Activity
# SNB-75 = assay: Growth inhibition of human SNB75 cells assessed as cell growth at 10^-4 M by sulforhodamine B assay; details: read-out: Activity
# NCI-H522 = assay: Growth inhibition of human NCI-H522 cells assessed as cell growth at 10^-4 M by sulforhodamine B assay; details: read-out: Activity
# HOP-62 = assay: Growth inhibition of human HOP62 cells assessed as cell growth at 10^-4 M by sulforhodamine B assay; details: read-out: Activity
# A549 = assay: Growth inhibition of human A549/ATCC cells assessed as cell growth at 10^-4 M by sulforhodamine B assay; details: read-out: Activity
# K562 [14] = assay: Growth inhibition of human K562 cells assessed as cell growth at 10^-4 M by sulforhodamine B assay; details: read-out: Activity
# T47D = assay: Growth inhibition of human T47D cells assessed as cell growth at 10^-6 M by sulforhodamine B assay; details: read-out: Activity
# MDA-MB-468 [15] = assay: Growth inhibition of human MDA-MB-468 cells assessed as cell growth at 10^-6 M by sulforhodamine B assay; details: read-out: Activity
# UO-31 = assay: Growth inhibition of human UO31 cells assessed as cell growth at 10^-6 M by sulforhodamine B assay; details: read-out: Activity
# SF-539 = assay: Growth inhibition of human SF539 cells assessed as cell growth at 10^-6 M by sulforhodamine B assay; details: read-out: Activity
# SF-268 [16] = assay: Growth inhibition of human SF268 cells assessed as cell growth at 10^-6 M by sulforhodamine B assay; details: read-out: Activity
# NCI-H460 [17] = assay: Growth inhibition of human NCI-H460 cells assessed as cell growth at 10^-6 M by sulforhodamine B assay; details: read-out: Activity
# NCI-H23 [18] = assay: Growth inhibition of human NCI-H23 cells assessed as cell growth at 10^-6 M by sulforhodamine B assay; details: read-out: Activity
# HOP-92 [19] = assay: Growth inhibition of human HOP92 cells assessed as cell growth at 10^-6 M by sulforhodamine B assay; details: read-out: Activity
# MCF7 [20] = assay: Growth inhibition of human MCF7 cells assessed as cell growth at 10^-7 M by sulforhodamine B assay; details: read-out: Activity
# SF-268 [21] = assay: Growth inhibition of human SF268 cells assessed as cell growth at 10^-7 M by sulforhodamine B assay; details: read-out: Activity
# NCI-H460 [22] = assay: Growth inhibition of human NCI-H460 cells assessed as cell growth at 10^-7 M by sulforhodamine B assay; details: read-out: Activity
# K562 [23] = assay: Growth inhibition of human K562 cells assessed as cell growth at 10^-7 M by sulforhodamine B assay; details: read-out: Activity
# 786-0 [24] = assay: Growth inhibition of human 786-0 cells assessed as cell growth at 10^-8 M by sulforhodamine B assay; details: read-out: Activity
# [25] = read-out: LC50 (the source's name)
# [26] = read-out: pLC50 (the source's name) (converted)
compound,measurement,setting,value
CC1(C)C[C@@H](O)[C@]2(C(=O)O)CC[C@]3(C)C(=CC[C@@H]4[C@@]5(C)C/C(=C\C=C\c6ccccc6)C(=O)C(C)(C)[C@@H]5CC[C@]43C)[C@@H]2C1,GI50,RPMI-8226; read-out: GI50,2.58 µM
same,CC50,RPMI-8226; [25],> 100 µM
same,TGI,RPMI-8226; read-out: TGI,7.96 µM
same,GI50,RPMI-8226; read-out: pGI50 (converted),2.57 µM
same,CC50,RPMI-8226; [26],> 100 µM
same,TGI,RPMI-8226; read-out: pTGI (converted),7.94 µM
same,inhibition of growth at 10 µM,BT-549,30%
same,inhibition of growth at 10 µM,MCF7 [1],66.2%
same,inhibition of growth at 10 µM,PC-3,58.5%
same,inhibition of growth at 10 µM,OVCAR-8 [2],57%
same,inhibition of growth at 10 µM,IGROV-1,39.2%
same,inhibition of growth at 10 µM,UACC-62,49.6%
same,inhibition of growth at 10 µM,UACC-257,38%
same,inhibition of growth at 10 µM,HT-29 [3],48.3%
same,inhibition of growth at 10 µM,[4],17.2%
same,inhibition of growth at 10 µM,NCI-H23 [5],40.3%
same,inhibition of growth at 10 µM,NCI-H226,27.7%
same,inhibition of growth at 10 µM,HOP-92 [6],50.8%
same,inhibition of growth at 10 µM,[7],60.6%
same,inhibition of growth at 10 µM,K562 [8],67.6%
same,growth at 10 µM,786-0 [9],78.1%
same,growth at 10 µM,OVCAR-8 [10],43%
same,growth at 10 µM,OVCAR-4,54.2%
same,growth at 10 µM,OVCAR-3,57.3%
same,growth at 10 µM,SNB-19,73.4%
same,growth at 10 µM,KM12,31.8%
same,growth at 10 µM,HT-29 [11],51.7%
same,growth at 10 µM,SR,62.6%
same,growth at 0.01 µM,NCI-H322M,98%
same,growth at 0.01 µM,K562 [12],114%
same,GI50,DU-145; read-out: GI50,4.23 µM
same,CC50,DU-145; [25],41.7 µM
same,TGI,DU-145; read-out: TGI,14.9 µM
same,GI50,DU-145; read-out: pGI50 (converted),4.27 µM
same,CC50,DU-145; [26],41.7 µM
same,TGI,DU-145; read-out: pTGI (converted),14.8 µM
same,GI50,A498; read-out: GI50,2.55 µM
same,CC50,A498; [25],35.2 µM
same,TGI,A498; read-out: TGI,11.6 µM
same,GI50,A498; read-out: pGI50 (converted),2.57 µM
same,CC50,A498; [26],35.5 µM
same,TGI,A498; read-out: pTGI (converted),11.5 µM
same,growth at 100 µM,MDA-MB-468 [13],-95%
same,growth at 100 µM,SNB-75,-70%
same,growth at 100 µM,NCI-H522,-86%
same,growth at 100 µM,HOP-62,-57%
same,growth at 100 µM,A549,-63%
same,growth at 100 µM,K562 [14],1%
same,growth at 1 µM,T47D,97%
same,growth at 1 µM,MDA-MB-468 [15],92%
same,growth at 1 µM,UO-31,92%
same,growth at 1 µM,SF-539,90%
same,growth at 1 µM,SF-268 [16],90%
same,growth at 1 µM,NCI-H460 [17],97%
same,growth at 1 µM,NCI-H23 [18],95%
same,growth at 1 µM,HOP-92 [19],76%
same,growth at 0.1 µM,MCF7 [20],92%
same,growth at 0.1 µM,SF-268 [21],91%
same,growth at 0.1 µM,NCI-H460 [22],101%
same,growth at 0.1 µM,K562 [23],102%
same,growth at 0.01 µM,786-0 [24],101%
